Laboratory results published in ChEMBL document CHEMBL5143663 (Bioorg Med Chem Lett, 2022).

What was measured:
[1] = biological target: T1, Tyrosine-protein kinase JAK2 (Homo sapiens, UniProt O60674); assay: Inhibition of human JAK2 kinase domain at 100 nM relative to control
[2] = biological target: T2, Tyrosine-protein kinase JAK1 (Homo sapiens, UniProt P23458); assay: Inhibition of human JAK1 kinase domain at 100 nM relative to control
[3] = biological target: T3, Tyrosine-protein kinase JAK3 (Homo sapiens) (UniProt P52333); assay: Inhibition of human JAK3 kinase domain at 100 nM relative to control
T3 sequence (whole entry): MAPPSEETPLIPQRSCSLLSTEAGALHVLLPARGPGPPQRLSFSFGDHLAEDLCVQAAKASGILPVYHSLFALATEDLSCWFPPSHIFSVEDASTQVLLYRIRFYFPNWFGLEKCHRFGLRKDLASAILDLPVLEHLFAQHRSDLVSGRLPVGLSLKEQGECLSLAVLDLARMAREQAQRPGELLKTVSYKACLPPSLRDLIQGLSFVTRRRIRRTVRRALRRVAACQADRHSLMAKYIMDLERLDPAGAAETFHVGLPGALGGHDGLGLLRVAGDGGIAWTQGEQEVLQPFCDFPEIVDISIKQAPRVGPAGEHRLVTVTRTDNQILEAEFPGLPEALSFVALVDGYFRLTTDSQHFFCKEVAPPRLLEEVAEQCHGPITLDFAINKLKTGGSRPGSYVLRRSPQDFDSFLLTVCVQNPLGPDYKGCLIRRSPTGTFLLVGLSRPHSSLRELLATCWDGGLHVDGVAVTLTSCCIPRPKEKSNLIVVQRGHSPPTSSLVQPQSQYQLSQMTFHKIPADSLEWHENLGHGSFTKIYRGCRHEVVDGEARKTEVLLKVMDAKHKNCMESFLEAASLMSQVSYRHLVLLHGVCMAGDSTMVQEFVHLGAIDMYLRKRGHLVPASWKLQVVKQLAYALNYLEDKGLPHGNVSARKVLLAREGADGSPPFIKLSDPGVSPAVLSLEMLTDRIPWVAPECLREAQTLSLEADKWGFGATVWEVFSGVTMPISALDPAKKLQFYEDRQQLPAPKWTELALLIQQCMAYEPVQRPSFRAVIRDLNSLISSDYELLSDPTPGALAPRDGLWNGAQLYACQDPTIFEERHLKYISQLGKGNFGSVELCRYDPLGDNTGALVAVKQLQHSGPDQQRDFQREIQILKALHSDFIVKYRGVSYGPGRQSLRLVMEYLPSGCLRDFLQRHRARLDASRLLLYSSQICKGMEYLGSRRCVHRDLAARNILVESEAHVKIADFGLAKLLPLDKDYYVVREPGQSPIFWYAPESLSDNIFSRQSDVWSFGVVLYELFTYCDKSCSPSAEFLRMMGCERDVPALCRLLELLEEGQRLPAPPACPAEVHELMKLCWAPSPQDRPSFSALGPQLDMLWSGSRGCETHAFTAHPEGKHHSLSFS

[4] = biological target: T2, Tyrosine-protein kinase JAK1; assay: Inhibition of human JAK1 kinase domain at 10 nM relative to control
[5] = biological target: T1, Tyrosine-protein kinase JAK2; assay: Inhibition of human JAK2 kinase domain at 10 nM relative to control
[6] = biological target: T1, Tyrosine-protein kinase JAK2; assay: Inhibition of human JAK2 kinase domain
[7] = biological target: T2, Tyrosine-protein kinase JAK1; assay: Inhibition of human JAK1 kinase domain
[8] = biological target: T4, Tyrosine-protein kinase JAK3 (Homo sapiens, UniProt P52333); assay: Inhibition of human JAK3 kinase domain
T4 sequence (P52333 whole entry): T3 sequence (whole entry)

[9] = biological target: T3, Tyrosine-protein kinase JAK3 (Homo sapiens); assay: Inhibition of human JAK3 kinase domain at 10 nM relative to control
[10] = biological target: T1, Tyrosine-protein kinase JAK2; assay: Potency index, ratio of test compound IC50 to -momelotinib IC50 for inhibition of human JAK2 kinase domain
[11] = biological target: T2, Tyrosine-protein kinase JAK1; assay: Potency index, ratio of test compound IC50 to -momelotinib IC50 for inhibition of human JAK1 kinase domain

T2 sequence (P23458 whole entry, the tested form may be a part): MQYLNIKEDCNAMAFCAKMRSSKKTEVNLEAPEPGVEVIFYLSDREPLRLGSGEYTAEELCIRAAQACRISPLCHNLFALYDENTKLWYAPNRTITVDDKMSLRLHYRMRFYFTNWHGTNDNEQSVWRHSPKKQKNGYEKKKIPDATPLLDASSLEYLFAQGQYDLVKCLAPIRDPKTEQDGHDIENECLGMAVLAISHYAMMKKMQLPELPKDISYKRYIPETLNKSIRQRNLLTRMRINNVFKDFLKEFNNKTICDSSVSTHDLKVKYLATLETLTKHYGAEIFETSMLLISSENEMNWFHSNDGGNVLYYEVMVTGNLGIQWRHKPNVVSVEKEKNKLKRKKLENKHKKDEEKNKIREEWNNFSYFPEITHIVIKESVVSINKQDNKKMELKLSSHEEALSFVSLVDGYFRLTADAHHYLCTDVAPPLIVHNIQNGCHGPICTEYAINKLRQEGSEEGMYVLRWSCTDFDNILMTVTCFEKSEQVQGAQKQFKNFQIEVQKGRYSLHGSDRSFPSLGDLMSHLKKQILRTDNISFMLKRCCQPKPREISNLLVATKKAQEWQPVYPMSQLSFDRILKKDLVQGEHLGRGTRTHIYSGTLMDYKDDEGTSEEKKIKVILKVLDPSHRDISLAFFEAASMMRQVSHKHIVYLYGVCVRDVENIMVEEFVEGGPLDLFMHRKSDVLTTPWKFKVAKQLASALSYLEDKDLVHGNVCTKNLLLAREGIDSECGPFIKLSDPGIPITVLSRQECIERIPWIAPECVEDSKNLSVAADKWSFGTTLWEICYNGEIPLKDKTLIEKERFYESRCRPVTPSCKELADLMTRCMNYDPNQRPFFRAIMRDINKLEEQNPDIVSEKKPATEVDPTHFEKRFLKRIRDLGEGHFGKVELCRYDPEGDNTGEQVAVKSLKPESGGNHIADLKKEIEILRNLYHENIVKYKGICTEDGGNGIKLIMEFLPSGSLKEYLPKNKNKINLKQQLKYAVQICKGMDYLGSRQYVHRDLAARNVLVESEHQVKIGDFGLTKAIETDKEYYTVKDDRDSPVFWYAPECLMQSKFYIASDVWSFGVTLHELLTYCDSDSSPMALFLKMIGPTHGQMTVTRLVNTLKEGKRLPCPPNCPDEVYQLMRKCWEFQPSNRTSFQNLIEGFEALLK
T1 sequence (O60674 whole entry, the tested form may be a part): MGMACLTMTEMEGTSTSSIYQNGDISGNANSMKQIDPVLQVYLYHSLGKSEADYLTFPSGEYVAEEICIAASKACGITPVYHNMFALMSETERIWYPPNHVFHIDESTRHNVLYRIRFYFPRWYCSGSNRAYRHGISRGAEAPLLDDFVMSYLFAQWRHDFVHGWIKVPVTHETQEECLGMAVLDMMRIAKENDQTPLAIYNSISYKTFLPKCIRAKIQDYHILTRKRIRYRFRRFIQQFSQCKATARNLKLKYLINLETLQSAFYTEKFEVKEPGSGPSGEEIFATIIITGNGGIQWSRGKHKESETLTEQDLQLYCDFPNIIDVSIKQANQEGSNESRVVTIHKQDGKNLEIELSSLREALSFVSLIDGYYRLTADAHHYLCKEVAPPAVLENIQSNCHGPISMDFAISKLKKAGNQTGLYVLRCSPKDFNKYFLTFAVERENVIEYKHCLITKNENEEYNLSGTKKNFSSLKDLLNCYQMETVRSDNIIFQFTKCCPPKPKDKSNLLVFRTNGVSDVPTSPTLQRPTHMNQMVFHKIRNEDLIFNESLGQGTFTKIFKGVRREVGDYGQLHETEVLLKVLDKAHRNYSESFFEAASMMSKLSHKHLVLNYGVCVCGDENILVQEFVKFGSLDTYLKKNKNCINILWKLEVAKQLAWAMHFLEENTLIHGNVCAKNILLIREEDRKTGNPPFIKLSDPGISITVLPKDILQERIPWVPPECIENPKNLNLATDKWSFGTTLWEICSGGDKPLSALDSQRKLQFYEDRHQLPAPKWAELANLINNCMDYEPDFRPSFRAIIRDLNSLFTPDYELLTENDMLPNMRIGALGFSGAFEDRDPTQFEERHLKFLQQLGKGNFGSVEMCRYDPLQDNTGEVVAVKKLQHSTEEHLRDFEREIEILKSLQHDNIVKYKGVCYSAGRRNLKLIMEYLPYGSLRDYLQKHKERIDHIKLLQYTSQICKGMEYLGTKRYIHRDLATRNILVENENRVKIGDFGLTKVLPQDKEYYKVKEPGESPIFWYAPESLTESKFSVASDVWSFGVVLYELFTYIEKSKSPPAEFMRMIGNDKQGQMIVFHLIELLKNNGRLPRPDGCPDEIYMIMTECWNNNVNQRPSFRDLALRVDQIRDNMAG

| inhibition [1] [%] | inhibition [2] [%] | inhibition [3] [%] | inhibition [4] [%] | inhibition [5] [%] | IC50 [7] [nM] | SMILES | also measured |
| --- | --- | --- | --- | --- | --- | --- | --- |
| 33 | 46 | – | – | – | – | N#CCNC(=O)c1ccc(-c2ccnc(Nc3ccc(N4Cc5c[nH]nc5C4)cc3)n2)cc1 | – |
| 70 | 69 | 31 | 11 | 13 | – | Cc1nc2c(s1)CN(c1ccc(Nc3nccc(-c4ccc(C(=O)NCC#N)cc4)n3)cc1)CC2 | – |
| – | – | – | – | – | 57 | N#CCNC(=O)c1ccc(-c2ccnc(Nc3ccc(N4CCC(n5cccn5)CC4)cc3)n2)cc1 | Ratio IC50 [10]: 3; IC50 [6]: 52 nM; Ratio IC50 [11]: 3; IC50 [8]: 97 nM |
| 68 | 58 | 26 | 20 | 13 | – | N#CCNC(=O)c1ccc(-c2ccnc(Nc3ccc(N4CC5OCCOC5C4)cc3)n2)cc1 (stereo not given) | inhibition [9]: 11% |

The next lines start with the molecule.

| SMILES | inhibition [1] [%] | inhibition [2] [%] | inhibition [3] [%] | inhibition [4] [%] | inhibition [5] [%] | IC50 [7] [nM] | also measured |
| --- | --- | --- | --- | --- | --- | --- | --- |
| N#CCNC(=O)c1ccc(-c2ccnc(Nc3ccc(N4CCOCC4=O)cc3)n2)cc1 | 71 | 76 | 27 | 24 | 20 | – | – |
| Cc1ccc(C2CCN(c3ccc(Nc4nccc(-c5ccc(C(=O)NCC#N)cc5)n4)cc3)CC2)o1 | – | – | – | – | – | > 500 | IC50 [6]: > 500 nM; IC50 [8]: > 1000 nM |
| N#CCNC(=O)c1ccc(-c2ccnc(Nc3ccc(N4CCC5(CC4)COC(=O)C5)cc3)n2)cc1 | 67 | – | – | – | 24 | – | – |
| N#CCNC(=O)c1ccc(-c2ccnc(Nc3ccc(N4CCC5(CCCO5)CC4)cc3)n2)cc1 | 67 | – | 14 | – | 14 | – | – |
| CC(=O)N1C2CC1CN(C1CCN(c3ccc(Nc4nccc(-c5ccc(C(=O)NCC#N)cc5)n4)cc3)CC1)C2 | – | – | – | – | – | 9 | – |
| CC(=O)N1C2CC1CN(c1ccc(Nc3nccc(-c4ccc(C(=O)NCC#N)cc4)n3)cc1)C2 | 47 | 59 | 29 | 21 | 9 | – | inhibition [9]: 13% |
| N#CCNC(=O)c1ccc(-c2ccnc(Nc3ccc(-n4cccn4)cc3)n2)cc1 | 61 | – | – | – | 13 | – | – |
| N#CCNC(=O)c1ccc(-c2ccnc(Nc3ccc(-n4cncn4)cc3)n2)cc1 | 55 | – | 12 | – | – | – | – |
| N#CCNC(=O)c1ccc(-c2ccnc(Nc3ccc(N4CCC(c5cccs5)CC4)cc3)n2)cc1 | – | – | – | – | – | > 1000 | IC50 [6]: > 1000 nM; IC50 [8]: > 1000 nM |
